System: MV-4-11 cells
Assay: Gene expression microarray analysis (Affymetrix PrimeView) and GSEA
Assay type: cell-based, human
Parameters: RFU PODN (11730768_x_at) / Fold change /veh PODN (11730768_x_at) / RFU LINC00158 (11744669_a_at) / Fold change /veh LINC00158 (11744669_a_at) / RFU DUSP10 (11751237_a_at) / Fold change /veh DUSP10 (11751237_a_at) / RFU ID3 (11757404_x_at) / Fold change /veh ID3 (11757404_x_at) / RFU PLEKHG5 (11737974_s_at) / Fold change /veh PLEKHG5 (11737974_s_at) / RFU LRRC4B (11730491_at) / Fold change /veh LRRC4B (11730491_at) / RFU GIMAP4 (11747438_a_at) / Fold change /veh GIMAP4 (11747438_a_at) / RFU KRT8 (11758183_x_at) / Fold change /veh KRT8 (11758183_x_at) / RFU CNN1 (11734310_a_at) / Fold change /veh CNN1 (11734310_a_at) / RFU VPS37D (11726825_at) / Fold change /veh VPS37D (11726825_at) / RFU C10orf10 (11716522_x_at) / Fold change /veh C10orf10 (11716522_x_at) / RFU KIR2DL2 /// KIR2DL4 /// KIR2DL5A /// KIR2DL5B /// KIR2DS1 /// KIR2DS2 /// KIR2DS3 /// KIR2DS4 /// KIR3DL3 /// KIR3DL3 /// KIR3DS1 (11738374_at) / Fold change /veh KIR2DL2 /// KIR2DL4 /// KIR2DL5A /// KIR2DL5B /// KIR2DS1 /// KIR2DS2 /// KIR2DS3 /// KIR2DS4 /// KIR3DL3 /// KIR3DL3 /// KIR3DS1 (11738374_at) / RFU C1QL1 (11718748_at) / Fold change /veh C1QL1 (11718748_at) / RFU TMPRSS4 (11747572_a_at) / Fold change /veh TMPRSS4 (11747572_a_at) / RFU HAMP (11756126_x_at) / Fold change /veh HAMP (11756126_x_at) / RFU RNFT2 (11725882_a_at) / Fold change /veh RNFT2 (11725882_a_at) / RFU NR4A2 (11747474_a_at) / Fold change /veh NR4A2 (11747474_a_at) / RFU ABCC12 (11746883_a_at) / Fold change /veh ABCC12 (11746883_a_at) / RFU TMEM136 (11760407_x_at) / Fold change /veh TMEM136 (11760407_x_at) / RFU CLDN22 /// WWC2 (11732394_at) / Fold change /veh CLDN22 /// WWC2 (11732394_at) / RFU HLA-DPB1 (11760878_x_at) / Fold change /veh HLA-DPB1 (11760878_x_at) / RFU SPINT1 (11716480_a_at) / Fold change /veh SPINT1 (11716480_a_at) / RFU GAP43 (11754022_s_at) / Fold change /veh GAP43 (11754022_s_at) / RFU A4GNT (11735810_at) / Fold change /veh A4GNT (11735810_at) / RFU PRB3 (11715151_x_at) / Fold change /veh PRB3 (11715151_x_at) / RFU TUBB4B (11761932_at) / Fold change /veh TUBB4B (11761932_at) / RFU CAPN14 (11732068_a_at) / Fold change /veh CAPN14 (11732068_a_at) / RFU TMCC2 (11721928_a_at) / Fold change /veh TMCC2 (11721928_a_at) / RFU IRGQ (11745062_a_at) / Fold change /veh IRGQ (11745062_a_at) / RFU FAM174B (11720279_a_at) / Fold change /veh FAM174B (11720279_a_at) / RFU TMPRSS4 (11748680_a_at) / Fold change /veh TMPRSS4 (11748680_a_at) / RFU FAM212B (11763350_a_at) / Fold change /veh FAM212B (11763350_a_at) / RFU PLEKHG5 (11743358_a_at) / Fold change /veh PLEKHG5 (11743358_a_at) / RFU ZSCAN30 (11745921_a_at) / Fold change /veh ZSCAN30 (11745921_a_at) / RFU CMKLR1 (11741424_a_at) / Fold change /veh CMKLR1 (11741424_a_at) / RFU LOC101060620 /// MAPK8IP1 (11723275_at) / Fold change /veh LOC101060620 /// MAPK8IP1 (11723275_at) / RFU SPTSSB (11747773_x_at) / Fold change /veh SPTSSB (11747773_x_at) / RFU PRSS12 (11739890_at) / Fold change /veh PRSS12 (11739890_at) / RFU BIN1 (11741810_x_at) / Fold change /veh BIN1 (11741810_x_at) / RFU WNT11 (11732464_a_at) / Fold change /veh WNT11 (11732464_a_at) / RFU C10orf10 (11716521_a_at) / Fold change /veh C10orf10 (11716521_a_at) / RFU C5orf56 (11738089_at) / Fold change /veh C5orf56 (11738089_at) / RFU CYB561 (11721691_x_at) / Fold change /veh CYB561 (11721691_x_at) / RFU ANKRD19P (11752326_a_at) / Fold change /veh ANKRD19P (11752326_a_at) / RFU OR2T12 /// OR2T33 /// OR2T8 (11738714_s_at) / Fold change /veh OR2T12 /// OR2T33 /// OR2T8 (11738714_s_at) / RFU VCAN (11748164_a_at) / Fold change /veh VCAN (11748164_a_at) / RFU JSRP1 (11732532_at) / Fold change /veh JSRP1 (11732532_at) / RFU KRTAP10-11 (11738290_x_at) / Fold change /veh KRTAP10-11 (11738290_x_at) / RFU MYO3A (11730013_a_at) / Fold change /veh MYO3A (11730013_a_at) / RFU EBF3 (11725865_a_at) / Fold change /veh EBF3 (11725865_a_at) / RFU CAMK2N1 (11719241_x_at) / Fold change /veh CAMK2N1 (11719241_x_at) / RFU C5orf56 (11738088_a_at) / Fold change /veh C5orf56 (11738088_a_at) / RFU OLFML3 (11715873_a_at) / Fold change /veh OLFML3 (11715873_a_at) / RFU LOC100653217 /// NTM (11731650_a_at) / Fold change /veh LOC100653217 /// NTM (11731650_a_at) / RFU MAPK11 (11762145_a_at) / Fold change /veh MAPK11 (11762145_a_at) / RFU FIZ1 (11724087_x_at) / Fold change /veh FIZ1 (11724087_x_at) / RFU OASL (11726364_x_at) / Fold change /veh OASL (11726364_x_at) / RFU SOX15 (11748057_x_at) / Fold change /veh SOX15 (11748057_x_at) / RFU CD79A (11719716_a_at) / Fold change /veh CD79A (11719716_a_at) / RFU HIST1H1D (11736915_at) / Fold change /veh HIST1H1D (11736915_at) / RFU CASKIN2 (11723855_a_at) / Fold change /veh CASKIN2 (11723855_a_at) / RFU LOC730098 (11760151_x_at) / Fold change /veh LOC730098 (11760151_x_at) / RFU OR4N2 (11742367_at) / Fold change /veh OR4N2 (11742367_at) / RFU PRRT2 (11749266_a_at) / Fold change /veh PRRT2 (11749266_a_at) / RFU SNX32 (11753110_a_at) / Fold change /veh SNX32 (11753110_a_at) / RFU CDHR5 (11726645_a_at) / Fold change /veh CDHR5 (11726645_a_at) / RFU RCAN1 (11760418_a_at) / Fold change /veh RCAN1 (11760418_a_at) / RFU FAM167A (11723789_a_at) / Fold change /veh FAM167A (11723789_a_at) / RFU FAM26E (11764081_at) / Fold change /veh FAM26E (11764081_at) / RFU ISYNA1 (11749810_s_at) / Fold change /veh ISYNA1 (11749810_s_at) / RFU ACY1 (11761880_at) / Fold change /veh ACY1 (11761880_at) / RFU 11764098_at / Fold change /veh 11764098_at / RFU SAMD14 (11745864_x_at) / Fold change /veh SAMD14 (11745864_x_at) / RFU NPB (11741838_a_at) / Fold change /veh NPB (11741838_a_at) / RFU TMPRSS6 (11731388_a_at) / Fold change /veh TMPRSS6 (11731388_a_at) / RFU KRTAP10-2 (11738614_at) / Fold change /veh KRTAP10-2 (11738614_at) / RFU ARHGAP8 /// PRR5-ARHGAP8 (11727945_x_at) / Fold change /veh ARHGAP8 /// PRR5-ARHGAP8 (11727945_x_at) / RFU KRTAP5-7 /// NADSYN1 (11734609_at) / Fold change /veh KRTAP5-7 /// NADSYN1 (11734609_at) / RFU RASL12 (11751679_a_at) / Fold change /veh RASL12 (11751679_a_at) / RFU CDKN2B (11736163_a_at) / Fold change /veh CDKN2B (11736163_a_at) / RFU PRF1 (11729649_at) / Fold change /veh PRF1 (11729649_at) / RFU, ZNF638 /// ZNF638-IT1 / Fold change vs veh, ZNF638 /// ZNF638-IT1 / RFU, PANK3 / Fold change vs veh, PANK3 / RFU, SH3YL1 / Fold change vs veh, SH3YL1 / RFU, ZEB2 / Fold change vs veh, ZEB2 / RFU, NRIP1 / Fold change vs veh, NRIP1 / RFU, PTTG1IP / Fold change vs veh, PTTG1IP / RFU, CAPN2 / Fold change vs veh, CAPN2 / RFU, MED14 / Fold change vs veh, MED14 / RFU, SNORA58 / Fold change vs veh, SNORA58 / RFU, C1orf63 / Fold change vs veh, C1orf63 / RFU, LRRFIP1 / Fold change vs veh, LRRFIP1 / RFU, NDUFAF7 / Fold change vs veh, NDUFAF7 / RFU, SLC12A2 / Fold change vs veh, SLC12A2 / RFU, IBTK / Fold change vs veh, IBTK / RFU, ESF1 / Fold change vs veh, ESF1 / Fold change vs veh, TMEM50B / RFU, TAOK1 / Fold change vs veh, TAOK1 / RFU, ACBD3 / Fold change vs veh, ACBD3 / RFU, TMA16 / Fold change vs veh, TMA16 / RFU, RWDD3 / Fold change vs veh, RWDD3 / RFU, BCAT1 / Fold change vs veh, BCAT1 / RFU, EDEM3 / Fold change vs veh, EDEM3 / RFU, TMEM33 / Fold change vs veh, TMEM33 / RFU, WDR75 / Fold change vs veh, WDR75 / RFU, AHCTF1 / Fold change vs veh, AHCTF1 / RFU, TFRC / Fold change vs veh, TFRC / RFU, ZDHHC17 / Fold change vs veh, ZDHHC17 / RFU, NOM1 / Fold change vs veh, NOM1 / RFU, ARL8B / Fold change vs veh, ARL8B / RFU, ZBTB11 / Fold change vs veh, ZBTB11 / RFU, TAMM41 / Fold change vs veh, TAMM41 / RFU, KIAA1704 /// LOC100996395 / Fold change vs veh, KIAA1704 /// LOC100996395 / RFU, ING1 / Fold change vs veh, ING1 / RFU, TRMT61B / Fold change vs veh, TRMT61B / RFU, FUBP3 / Fold change vs veh, FUBP3 / RFU, TP53 / Fold change vs veh, TP53 / RFU, TNKS2 / Fold change vs veh, TNKS2 / RFU, ZFP14 / Fold change vs veh, ZFP14 / RFU, ACTR2 / Fold change vs veh, ACTR2 / RFU, PPP3R1 / Fold change vs veh, PPP3R1 / RFU, PIK3R1 / Fold change vs veh, PIK3R1 / RFU, HNRNPA1 / Fold change vs veh, HNRNPA1 / RFU, RNF170 / Fold change vs veh, RNF170 / RFU, ZNF28 / Fold change vs veh, ZNF28 / RFU, RNGTT / Fold change vs veh, RNGTT / RFU, OGT / Fold change vs veh, OGT / RFU, BRD1 / Fold change vs veh, BRD1 / RFU, MARS / Fold change vs veh, MARS / RFU, ZNF655 / Fold change vs veh, ZNF655 / RFU, FAHD1 / Fold change vs veh, FAHD1 / RFU, BDP1 / Fold change vs veh, BDP1 / RFU, LRRCC1 / Fold change vs veh, LRRCC1 / RFU, ARID1A / Fold change vs veh, ARID1A / RFU, ZNF146 / Fold change vs veh, ZNF146 / RFU, ZNF330 / Fold change vs veh, ZNF330 / RFU, GPN3 / Fold change vs veh, GPN3 / RFU, C9orf123 / Fold change vs veh, C9orf123 / RFU, N4BP2L2 / Fold change vs veh, N4BP2L2 / RFU, ARFIP1 / Fold change vs veh, ARFIP1 / RFU, FAM179B / Fold change vs veh, FAM179B / RFU, BCL10 / Fold change vs veh, BCL10 / RFU, UHRF1BP1L / Fold change vs veh, UHRF1BP1L / RFU, BET1 / Fold change vs veh, BET1 / RFU, CNOT2 / Fold change vs veh, CNOT2 / RFU, ZNF268 / Fold change vs veh, ZNF268 / Fold change vs veh, ZNF507 / RFU, DGCR2 / Fold change vs veh, DGCR2 / RFU, WDSUB1 / Fold change vs veh, WDSUB1 / Fold change vs veh, HSP90B1 /// MIR3652 / RFU, ADSS / Fold change vs veh, ADSS / RFU, GK / Fold change vs veh, GK / RFU, ZNF148 / Fold change vs veh, ZNF148 / RFU, TAF9 / Fold change vs veh, TAF9 / RFU, SLC1A5 / Fold change vs veh, SLC1A5 / RFU, SLMO2 / Fold change vs veh, SLMO2 / RFU, ABCC4 / Fold change vs veh, ABCC4 / RFU, LOC101060439 /// RAP1B / Fold change vs veh, LOC101060439 /// RAP1B / RFU, RFX7 / Fold change vs veh, RFX7 / RFU, GTPBP10 / Fold change vs veh, GTPBP10 / RFU, CNEP1R1 / Fold change vs veh, CNEP1R1 / RFU, BIVM-ERCC5 /// ERCC5 / Fold change vs veh, BIVM-ERCC5 /// ERCC5 / RFU, ILF3 / Fold change vs veh, ILF3 / RFU 11762660_at / Fold change /veh 11762660_at / RFU VCAN (11757783_s_at) / Fold change /veh VCAN (11757783_s_at) / RFU DDX43 (11728927_at) / Fold change /veh DDX43 (11728927_at) / RFU KRT8 (11758188_x_at) / Fold change /veh KRT8 (11758188_x_at) / RFU NKD1 (11759106_at) / Fold change /veh NKD1 (11759106_at) / RFU SRD5A1 (11742802_a_at) / Fold change /veh SRD5A1 (11742802_a_at) / RFU TPSAB1 /// TPSB2 (11721975_s_at) / Fold change /veh TPSAB1 /// TPSB2 (11721975_s_at) / RFU GSTM3 (11746129_a_at) / Fold change /veh GSTM3 (11746129_a_at) / RFU IL23R (11737362_x_at) / Fold change /veh IL23R (11737362_x_at) / RFU TMEM51 (11727254_a_at) / Fold change /veh TMEM51 (11727254_a_at) / RFU PIWIL2 (11732686_x_at) / Fold change /veh PIWIL2 (11732686_x_at) / RFU ORM1 (11744905_x_at) / Fold change /veh ORM1 (11744905_x_at) / RFU CCDC152 (11743942_at) / Fold change /veh CCDC152 (11743942_at) / RFU ECM1 (11717891_a_at) / Fold change /veh ECM1 (11717891_a_at) / RFU IL23R (11748794_a_at) / Fold change /veh IL23R (11748794_a_at) / RFU TNFAIP8L3 (11732012_x_at) / Fold change /veh TNFAIP8L3 (11732012_x_at) / RFU MBOAT4 (11741988_at) / Fold change /veh MBOAT4 (11741988_at) / RFU 11764193_at / Fold change /veh 11764193_at / RFU TMEM53 (11763286_at) / Fold change /veh TMEM53 (11763286_at) / RFU MAGEB2 (11727129_at) / Fold change /veh MAGEB2 (11727129_at) / RFU TMEM200A (11744735_a_at) / Fold change /veh TMEM200A (11744735_a_at) / RFU CCDC152 (11751479_a_at) / Fold change /veh CCDC152 (11751479_a_at) / RFU FAM211A (11726209_a_at) / Fold change /veh FAM211A (11726209_a_at) / RFU RGS16 (11746705_a_at) / Fold change /veh RGS16 (11746705_a_at) / RFU VCAN (11755009_s_at) / Fold change /veh VCAN (11755009_s_at) / RFU RHOB (11743442_s_at) / Fold change /veh RHOB (11743442_s_at) / RFU RGS16 (11720943_a_at) / Fold change /veh RGS16 (11720943_a_at) / RFU RGS16 (11720944_at) / Fold change /veh RGS16 (11720944_at) / RFU, VPS4B / Fold change vs veh, VPS4B / RFU, CREB1 / Fold change vs veh, CREB1 / RFU, DNAJC13 / Fold change vs veh, DNAJC13 / RFU, GNAQ / Fold change vs veh, GNAQ / RFU, CDK5R1 / Fold change vs veh, CDK5R1 / RFU, ZRANB3 / Fold change vs veh, ZRANB3 / RFU, CUL4A / Fold change vs veh, CUL4A / RFU, CCNY / Fold change vs veh, CCNY / RFU, UFL1 / Fold change vs veh, UFL1 / RFU, COG3 / Fold change vs veh, COG3 / RFU, DIAPH2 / Fold change vs veh, DIAPH2 / RFU, SKA2 / Fold change vs veh, SKA2 / RFU, AFF3 / Fold change vs veh, AFF3 / RFU, LMF1 / Fold change vs veh, LMF1 / RFU, IPO11 / Fold change vs veh, IPO11 / RFU, DFFB / Fold change vs veh, DFFB / RFU, FOXP1 / Fold change vs veh, FOXP1 / RFU, CARD8 / Fold change vs veh, CARD8 / RFU, STRN3 / Fold change vs veh, STRN3 / RFU, ADK / Fold change vs veh, ADK / RFU, RASSF2 / Fold change vs veh, RASSF2 / RFU, WIPF1 / Fold change vs veh, WIPF1 / RFU, LARP1B / Fold change vs veh, LARP1B / RFU, RASA1 / Fold change vs veh, RASA1 / RFU, RB1 / Fold change vs veh, RB1 / RFU, PPFIA1 / Fold change vs veh, PPFIA1 / RFU, MAT2A / Fold change vs veh, MAT2A / RFU, CCT5 / Fold change vs veh, CCT5 / RFU, WDR92 / Fold change vs veh, WDR92 / RFU, CUX1 / Fold change vs veh, CUX1 / RFU, TTC7A / Fold change vs veh, TTC7A / RFU, TMEM135 / Fold change vs veh, TMEM135 / RFU, DEPTOR / Fold change vs veh, DEPTOR / RFU, CPM / Fold change vs veh, CPM / RFU, DNAJB6 / Fold change vs veh, DNAJB6 / RFU, CACNA2D3 / Fold change vs veh, CACNA2D3 / RFU, DTX4 / Fold change vs veh, DTX4 / RFU, TFCP2 / Fold change vs veh, TFCP2 / RFU, GMCL1 /// GMCL1P1 / Fold change vs veh, GMCL1 /// GMCL1P1 / RFU, AEBP2 / Fold change vs veh, AEBP2 / RFU, SNHG1 /// SNORD22 /// SNORD25 /// SNORD26 /// SNORD27 /// SNORD28 /// SNORD29 /// SNORD31 / Fold change vs veh, SNHG1 /// SNORD22 /// SNORD25 /// SNORD26 /// SNORD27 /// SNORD28 /// SNORD29 /// SNORD31 / Fold change (Aza/veh), C12orf56 (ProbeSet 11735607_a_at) / Fold change (ACY-1035/veh), C12orf56 (ProbeSet 11735607_a_at) / Fold change (Aza/veh), FGFR1OP (ProbeSet 11751329_s_at) / Fold change (ACY-1035/veh), FGFR1OP (ProbeSet 11751329_s_at) / Fold change (Aza/veh), VPS36 (ProbeSet 11739960_a_at) / Fold change (ACY-1035/veh), VPS36 (ProbeSet 11739960_a_at) / RFU SYPL1 (11715823_x_at) / Fold change /veh SYPL1 (11715823_x_at) / RFU IGFBP7 (11715501_s_at) / Fold change /veh IGFBP7 (11715501_s_at) / RFU REEP3 (11722064_at) / Fold change /veh REEP3 (11722064_at) / RFU IGLL1 (11728026_x_at) / Fold change /veh IGLL1 (11728026_x_at): dose or concentration left out as unconfirmed
Settings: MV-4-11 cells, 48 hours

## Nc1ncn([C@@H]2O[C@H](CO)[C@@H](O)[C@H]2O)c(=O)n1 [azacitidine]
  RFU HAMP (11756126_x_at): 317.78 RFU

Reference: publication PMC5218480 (PLoS ONE, 2017)
